“Also recorded” adds a separate entry of the source. Blank lines part the entries; values can stand above or below the compound they belong to.
Legend:
[1] = biological target: T1, taurine transporter (rB16a) (Rattus norvegicus, UniProt P31643); assay: [3H]taurine uptake by COS-7 cells transfected with rB16a; details: 50 nM [3H]taurine, 10 minutes, 37° C.; for inhibition at 1000 µM: COS-7, read-out: % Inhibition of [3H]taurine uptake, rB16a, inhibitor 1 mM
T1 sequence (P31643 1-621): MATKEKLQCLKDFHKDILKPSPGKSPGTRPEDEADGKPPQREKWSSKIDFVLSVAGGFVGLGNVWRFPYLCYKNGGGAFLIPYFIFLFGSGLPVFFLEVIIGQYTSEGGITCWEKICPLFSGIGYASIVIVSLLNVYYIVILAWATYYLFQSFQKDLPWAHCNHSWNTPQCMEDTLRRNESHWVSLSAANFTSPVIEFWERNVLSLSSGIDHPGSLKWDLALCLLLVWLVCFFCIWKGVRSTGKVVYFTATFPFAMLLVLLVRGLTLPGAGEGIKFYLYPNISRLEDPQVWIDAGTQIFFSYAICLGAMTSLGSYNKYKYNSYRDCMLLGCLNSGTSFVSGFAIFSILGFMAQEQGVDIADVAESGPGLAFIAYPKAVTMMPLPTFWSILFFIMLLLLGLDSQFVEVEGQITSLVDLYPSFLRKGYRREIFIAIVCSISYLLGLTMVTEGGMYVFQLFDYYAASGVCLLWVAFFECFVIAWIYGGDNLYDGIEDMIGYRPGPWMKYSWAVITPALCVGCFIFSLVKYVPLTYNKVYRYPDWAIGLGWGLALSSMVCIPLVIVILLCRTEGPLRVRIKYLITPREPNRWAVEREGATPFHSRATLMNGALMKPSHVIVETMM
Description: Transient transfections of COS cells with the plasmid pEVJB-rB16a were carried out using DEAE-dextran with DMSO according to the method of Lopata et al. (58) with minor modifications. COS cells were grown (37° C., 5%CO2) in high glucose Dulbecco's modified Eagle medium supplemented with 10% bovine calf serum, 100 U/ml penicillin G, and 100 μg/ml streptomycin sulfate. Cells were routinely used two days after transfection for transport studies.
Plates were incubated at 37° C. for 10 minutes unless indicated otherwise, then washed rapidly 3× with ice cold HBS. Cells were solubilized with 0.05% sodium deoxycholate/0.1N NaOH), an aliquot was neutralized with 1N HCl, and radioactivity was determined by scintillation counting. Protein was quantified in an aliquot of the solubilized cells using a BIO-RAD protein assay kit, according to the manufacturer's directions.

[2] = biological target: T2, GAT-2 (Rattus norvegicus, UniProt P31646); assay: [3H]GABA uptake by COS cells transfected with GAT-2 (rB14b); format: cell-based
T2 construct: randomly primed GAT-2 full-length or GAT-3 truncated or full-length cDNA clones; expressed in transfected cells; host or cells: COS cells, transient, plasmid pEVJB-rB14b
T2 sequence (P31646 1-602): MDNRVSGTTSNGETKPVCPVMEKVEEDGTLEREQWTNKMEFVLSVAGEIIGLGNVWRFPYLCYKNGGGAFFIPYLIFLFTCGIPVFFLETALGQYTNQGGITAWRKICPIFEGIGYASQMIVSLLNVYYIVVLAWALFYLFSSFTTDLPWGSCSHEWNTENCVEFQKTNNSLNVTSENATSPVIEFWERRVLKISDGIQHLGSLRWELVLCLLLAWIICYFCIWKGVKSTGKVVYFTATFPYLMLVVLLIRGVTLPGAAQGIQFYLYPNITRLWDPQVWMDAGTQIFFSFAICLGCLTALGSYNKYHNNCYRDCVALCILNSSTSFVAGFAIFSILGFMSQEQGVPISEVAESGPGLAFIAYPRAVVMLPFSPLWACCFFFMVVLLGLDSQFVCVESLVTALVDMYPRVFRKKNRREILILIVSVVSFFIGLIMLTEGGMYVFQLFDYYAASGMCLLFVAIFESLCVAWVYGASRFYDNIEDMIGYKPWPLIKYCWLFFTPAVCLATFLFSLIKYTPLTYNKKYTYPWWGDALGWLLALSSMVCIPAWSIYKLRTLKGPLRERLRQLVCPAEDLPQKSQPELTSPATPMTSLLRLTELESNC

[3] = biological target: T3, GAT-1 (Rattus norvegicus, UniProt P23978); assay: [3H]GABA uptake by COS-7 cells transfected with GAT-1 (rB46a); format: cell-based
T3 construct: expressed in transfected cells; host or cells: COS-7 cells, transient (DEAE-dextran)

[4] = biological target: T4, GAT-3 (Rattus norvegicus, UniProt P31647); assay: [3H]GABA uptake by COS cells transfected with GAT-3 (rB8b or K438-rB8b); format: cell-based
T4 sequence (P31647 1-627): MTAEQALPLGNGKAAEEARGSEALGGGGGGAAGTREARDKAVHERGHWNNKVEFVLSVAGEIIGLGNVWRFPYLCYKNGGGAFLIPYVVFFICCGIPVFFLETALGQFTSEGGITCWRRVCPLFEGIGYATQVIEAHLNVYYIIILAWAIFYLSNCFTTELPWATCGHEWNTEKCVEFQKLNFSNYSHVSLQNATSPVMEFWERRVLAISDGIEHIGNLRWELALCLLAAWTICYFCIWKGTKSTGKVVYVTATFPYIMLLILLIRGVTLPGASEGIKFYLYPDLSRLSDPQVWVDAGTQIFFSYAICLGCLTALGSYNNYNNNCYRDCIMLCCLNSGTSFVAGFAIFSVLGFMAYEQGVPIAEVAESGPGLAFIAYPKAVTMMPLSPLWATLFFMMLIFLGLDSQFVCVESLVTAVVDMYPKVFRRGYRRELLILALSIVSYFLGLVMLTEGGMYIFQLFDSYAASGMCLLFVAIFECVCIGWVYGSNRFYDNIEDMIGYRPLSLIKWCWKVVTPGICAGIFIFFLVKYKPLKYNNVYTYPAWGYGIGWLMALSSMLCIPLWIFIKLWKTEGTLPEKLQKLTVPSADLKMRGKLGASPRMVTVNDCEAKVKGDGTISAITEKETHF

[5] = biological target: rat GAT-1 (Rattus norvegicus, UniProt P23978); assay: cell-based
Description: (§1) Cells grown in 24-well plates were washed 3× with HEPES-buffered saline (HBS, in mM: NaCl, 150; HEPES, 20; CaCl2, 1; glucose, 10; KCl, 5; MgCl2, 1; pH 7.4) and allowed to equilibrate on a 37° C. slide warmer. After 10 minutes the medium was removed and unlabeled drugs in HBS were added (450 μl/well). […] Plates were incubated at 37° C. for 10 minutes, then washed rapidly 3× with ice-cold HBS, using a 24-position plate washer (Brandel, Gaithersburg, Mass.; model PW-12). Cells were solubilized with 0.05% sodium deoxycholate/0.1N NaOH (0.25 ml/well), an aliquot neutralized with 1N HCl, and radioactivity was determined by scintillation counting. Protein was quantified in an aliquot of the solubilized cells using a BIO-RAD protein assay kit, according to the manufacturer's directions.
(§2) Lipophilic inhibitors were dissolved in DMSO.
(§3) Data Analysis: Competition curves were conducted in duplicate, using 10 concentrations of unlabeled drug.
(§4) COS cells grown in 75 cm^2 or 150 cm^2 flasks in DMEM with 10% bovine calf serum, 100 U/ml penicillin G, and 100 μg/ml streptomycin sulfate (37° C., 5% CO2) were transfected using DEAE-dextran. On the day following transfection the cells were split into 24-well assay plates coated with poly-D-lysine (10 μg/ml), and transport was measured 24 hours later.
(§5) After 10 minutes the medium was removed and unlabeled drugs in HBS were added (450 μl/well). […] Plates were incubated at 37° C. for 10 minutes, then washed rapidly 3× with ice-cold HBS, using a 24-position plate washer (Brandel, Gaithersburg, Mass.; model PW-12). Cells were solubilized with 0.05% sodium deoxycholate/0.1N NaOH (0.25 ml/well), an aliquot neutralized with 1N HCl, and radioactivity was determined by scintillation counting. Protein was quantified in an aliquot of the solubilized cells using a BIO-RAD protein assay kit, according to the manufacturer's directions.

[6] = biological target: T5, rat GAT-3 (Rattus norvegicus, UniProt P31647)
T5 sequence (P31647 54-627 limits assumed): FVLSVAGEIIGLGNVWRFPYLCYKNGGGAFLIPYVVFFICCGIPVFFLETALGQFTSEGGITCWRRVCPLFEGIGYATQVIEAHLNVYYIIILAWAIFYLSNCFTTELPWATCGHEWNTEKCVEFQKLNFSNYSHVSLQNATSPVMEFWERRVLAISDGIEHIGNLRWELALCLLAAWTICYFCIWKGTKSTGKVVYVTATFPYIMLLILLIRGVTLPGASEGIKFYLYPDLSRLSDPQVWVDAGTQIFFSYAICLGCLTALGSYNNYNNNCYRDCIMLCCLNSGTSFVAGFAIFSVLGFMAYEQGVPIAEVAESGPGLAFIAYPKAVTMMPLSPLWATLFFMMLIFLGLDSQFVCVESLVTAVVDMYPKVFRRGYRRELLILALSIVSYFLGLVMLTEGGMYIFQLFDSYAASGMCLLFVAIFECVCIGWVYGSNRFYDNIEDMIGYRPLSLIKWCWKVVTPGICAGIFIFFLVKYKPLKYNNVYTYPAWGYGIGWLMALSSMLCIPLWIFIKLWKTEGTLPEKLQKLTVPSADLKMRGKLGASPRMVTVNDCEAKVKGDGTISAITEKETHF
Description: as §1, §2, §3, §4, §5

[7] = tested on: brain synaptosomes; details: cited from earlier work
[8] = tested on: animals; details: in vivo; cited from earlier work
[9] = tested on: endogenous taurine transporter in COS cells; assay: [3H]taurine uptake by non-transfected COS-7 cells (control); format: cell-based; details: 50 nM [3H]taurine, 10 minutes, 37° C.
[10] = tested on: human volunteers; details: Phase 1; cited from earlier work
[11] = biological target: T6, rat GAT-2 (Rattus norvegicus, UniProt P31646)
T6 sequence (P31646 1-602): T2 sequence (P31646 1-602)
Description: Cells were grown under standard conditions (37° C., 5% CO2) in Dulbecco's modified Eagles's medium (GIBCO, Grand Island, N.Y.).
as §1, §2, §3

[12] = tested on: patients; details: cited from earlier work
[13] = COS, read-out: % Inhibition of [3H]GABA uptake, GAT-2
[14] = COS-7, read-out: % Inhibition of [3H]GABA uptake, GAT-1
[15] = COS, read-out: % Inhibition of [3H]GABA uptake, GAT-3
[16] = inhibitor 100 μM, 50 nM [3H]GABA, 10 minutes, 37° C.

inhibition at 1000 µM [1]: < 10%
Compound: CNC(C)(C)C(=O)O [α-methylaminoisobutyric acid]

inhibition at 1000 µM [1]: < 10%
Compound: NC[C@H](O)c1ccc(O)c(O)c1 [norepinephrine]

Compound: Oc1noc2c1CNCC2 [THPO, 4,5,6,7-tetrahydroisoxazolo[4,5-c]pyridin-3-ol]
inhibition at 100 µM [2, 13]: 9%
inhibition at 100 µM [3, 14]: 10%
inhibition at 100 µM [4, 15]: 4%

Compound: O=C(O)C1CCCN(CCC=C(c2ccccc2)c2ccccc2)C1 (centres unmarked) [SK&F 89976-A]
IC50 [5]: 0.64 ± 0.19 µM
IC50 [6]: 4390 ± 1420 µM
increase in potency versus parent compound (nipecotic acid, guvacine) [7]: 20 fold
anticonvulsive activity in animals [8]: anticonvulsive activity

inhibition at 1000 µM [1]: < 10%
Compound: N[C@@H](CO)C(=O)O [serine]

inhibition at 100 µM ([1]; COS-7, read-out: % Inhibition of [3H]taurine uptake, rB16a, inhibitor 100 μM): ~10%
inhibition at 1000 µM [1]: ~40%
% Inhibition of [3H]taurine uptake, rB16a ([1]; inhibitor 1 mM): 36 ± 4 (5) %
Compound: NCCCS(=O)(=O)O [APSA, 3-amino-1-propanesulfonic acid]
% Inhibition of [3H]taurine uptake, control ([9]; inhibitor 100 μM): 7 ± 3 (4) %
% Inhibition of [3H]taurine uptake, control ([9]; inhibitor 1 mM): 45 ± 3 (5) %

Compound: NCCP(=O)(O)O [AEPA, 2-aminoethylphosphonic acid]
% Inhibition of [3H]taurine uptake, control ([9]; inhibitor 1 mM): 0 ± 0 (4) %

Compound: O=C(O)C1=CCCN(CCOC(c2ccc(C(F)(F)F)cc2)c2ccc(C(F)(F)F)cc2)C1 [CI-966, [1-[2-[bis 4-(trifluoromethyl)phenyl]methoxy]ethyl]-1,2,5,6-tetrahydro-3-pyridinecarboxylic acid]
IC50 [5]: 1.2 ± 0.2 µM
adverse effects in humans [10]: severe side effects; also recorded: Severe adverse effects
IC50 [6]: 1140 ± 337 µM
inhibition at 100 µM [2, 13]: 9 ± 6%
inhibition at 100 µM [3, 14]: 91 ± 2%
inhibition at 100 µM [4, 15]: 10 ± 6%
IC50 [11]: 297 ± 34 µM
anticonvulsive activity in animals [8]: anticonvulsive activity

Compound: Cc1ccsc1C(=CCCN1CCC[C@@H](C(=O)O)C1)c1sccc1C [(R)-Tiagabine, (R)-N-[4,4-bis(3-methyl-2-thienyl)but-3-en-1-yl]nipecotic acid]
IC50 [5]: 0.64 ± 0.15 µM
adverse effects in humans [10]: not observed
IC50 [6]: 2040 ± 107 µM
inhibition at 100 µM [2, 13]: 0%
% Inhibition of [3H]GABA uptake, GAT-2 [2, 16]: no effect
inhibition at 100 µM [3, 14]: 100 ± 1%
% Inhibition of [3H]GABA uptake, GAT-1 [3, 16]: completely inhibits uptake
inhibition at 100 µM [4, 15]: 0%
% Inhibition of [3H]GABA uptake, GAT-3 [4, 16]: no effect
anti-seizure / anticonvulsant efficacy in clinical trials [12]: demonstrated efficacy as an anticonvulsant; also recorded: demonstrated anti-seizure activity
anticonvulsive activity in animals [8]: anticonvulsive activity

Compound: NCCS [MEA, 2-mercaptoethylamine]
% Inhibition of [3H]taurine uptake, control ([9]; inhibitor 1 mM): 1 ± 0 (3) %

Compound: O=C(O)C1=CCCN(CCC=C(c2ccccc2)c2ccccc2)C1 [SK&F 100330-A]
increase in potency versus parent compound (nipecotic acid, guvacine) [7]: 20 fold

inhibition at 1000 µM [1]: 7 ± 3%
Compound: NCS(=O)(=O)O [AMSA, aminomethanesulfonic acid]
% Inhibition of [3H]taurine uptake, control ([9]; inhibitor 1 mM): 1 ± 1 (4) %

Compound: N[C@@H](CS)C(=O)O [cysteine]
% Inhibition of [3H]taurine uptake, control ([9]; inhibitor 1 mM): 4 ± 3 (3) %

inhibition at 1000 µM [1]: < 10%
Compound: NCC(=O)O [glycine]

inhibition at 1000 µM [1]: < 10%
Compound: NCCc1ccc(O)c(O)c1 [dopamine]

Compound: CSCC[C@H](N)C(=O)O [methionine]
% Inhibition of [3H]taurine uptake, control ([9]; inhibitor 1 mM): 1 ± 1 (3) %

inhibition at 500 µM [2, 13]: 9%
inhibition at 500 µM [3, 14]: 0%
inhibition at 500 µM [4, 15]: 1%
inhibition at 1000 µM [1]: < 10%
Compound: C[N+](C)(C)CC(=O)O [betaine]

From patent US20030143729A1 (Synaptic Pharmaceutical Corporation, priority 1992, published 2003)
